Assays:
[1] = biological target: T1, rat P2X3 receptor (Rattus norvegicus, UniProt P49654); assay: P2X3 FLIPR (Fluorometric Imaging Plate Reader) assay; assay type: cell-based; settings: transfected CHO-K1 cells; agonist α,β-meATP 1 μM; Fluo-3 calcium fluorescence; read-out: pIC50 for the P2X3 receptor (converted)
T1 construct: expressed in transfected cells; host or cells: CHO-K1
T1 sequence (P49654 1-397): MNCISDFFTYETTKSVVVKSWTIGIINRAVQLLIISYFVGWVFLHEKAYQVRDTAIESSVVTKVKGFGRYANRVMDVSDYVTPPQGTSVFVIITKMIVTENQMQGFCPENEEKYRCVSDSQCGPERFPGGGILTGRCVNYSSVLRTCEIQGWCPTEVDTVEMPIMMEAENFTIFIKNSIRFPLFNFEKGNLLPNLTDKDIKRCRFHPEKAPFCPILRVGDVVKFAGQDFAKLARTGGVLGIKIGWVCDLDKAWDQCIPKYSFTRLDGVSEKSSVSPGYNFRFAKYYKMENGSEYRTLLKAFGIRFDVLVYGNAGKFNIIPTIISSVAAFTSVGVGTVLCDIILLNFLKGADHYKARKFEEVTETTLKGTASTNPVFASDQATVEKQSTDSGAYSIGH
Method: (§1) CHO-K1 cells were transfected with cloned rat P2X3 or human P2X2/3 receptor subunits and passaged in flasks. 18-24 hours before the FLIPR experiment, cells were released from their flasks, centrifuged, and resuspended in nutrient medium at 2.5×10^5 cells/ml. The cells were aliquoted into black-walled 96-well plates at a density of 50,000 cells/well and incubated overnight in 5% CO2 at 37° C. On the day of the experiment, cells were washed in FLIPR buffer (calcium- and magnesium-free Hank's balanced salt solution, 10 mM HEPES, 2 mM CaCl2, 2.5 mM probenecid; FB). Each well received 100 μl FB and 100 μl of the fluorescent dye Fluo-3 AM [2 μM final conc.]. […]
(§2) Test compounds (dissolved in DMSO at 10 mM and serially diluted with FB) or vehicle were added to each well (25 μl of a 4× solution) and allowed to equilibrate for 20 minutes at room temperature. The plates were then placed in the FLIPR and a baseline fluorescence measurement (excitation at 488 nm and emission at 510-570 nm) was obtained for 10 seconds before a 100 μl/well agonist or vehicle addition. […] Fluorescence was measured for an additional 2 minutes at 1 second intervals after agonist addition. A final addition of ionomycin (5 μM, final concentration) was made to each well of the FLIPR test plate to establish cell viability and maximum fluorescence of dye-bound cytosolic calcium. […]

[2] = biological target: T2, human P2X2/3 receptor (Homo sapiens, UniProt P56373+Q9UBL9); assay: P2X2/3 FLIPR (Fluorometric Imaging Plate Reader) assay; assay type: cell-based; settings: transfected CHO-K1 cells; agonist α,β-meATP 5 μM; Fluo-3 calcium fluorescence; read-out: pKi for the P2X2/3 receptor (converted)
T2 construct: expressed in transfected cells; host or cells: CHO-K1
T2 sequence (Q9UBL9 1-471): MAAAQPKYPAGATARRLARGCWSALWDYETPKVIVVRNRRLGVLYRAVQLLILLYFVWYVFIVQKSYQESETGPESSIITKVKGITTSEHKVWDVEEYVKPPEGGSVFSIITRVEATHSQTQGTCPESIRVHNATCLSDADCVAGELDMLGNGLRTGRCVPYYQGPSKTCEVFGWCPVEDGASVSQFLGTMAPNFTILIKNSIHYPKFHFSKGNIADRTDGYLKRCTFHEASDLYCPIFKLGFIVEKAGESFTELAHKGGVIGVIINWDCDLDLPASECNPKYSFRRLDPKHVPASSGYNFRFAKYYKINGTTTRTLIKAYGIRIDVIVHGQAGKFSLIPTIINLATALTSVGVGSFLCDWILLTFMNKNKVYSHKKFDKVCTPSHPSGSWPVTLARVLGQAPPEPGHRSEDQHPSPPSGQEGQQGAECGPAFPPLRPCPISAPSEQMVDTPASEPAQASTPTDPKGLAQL
T2 sequence (P56373 1-397): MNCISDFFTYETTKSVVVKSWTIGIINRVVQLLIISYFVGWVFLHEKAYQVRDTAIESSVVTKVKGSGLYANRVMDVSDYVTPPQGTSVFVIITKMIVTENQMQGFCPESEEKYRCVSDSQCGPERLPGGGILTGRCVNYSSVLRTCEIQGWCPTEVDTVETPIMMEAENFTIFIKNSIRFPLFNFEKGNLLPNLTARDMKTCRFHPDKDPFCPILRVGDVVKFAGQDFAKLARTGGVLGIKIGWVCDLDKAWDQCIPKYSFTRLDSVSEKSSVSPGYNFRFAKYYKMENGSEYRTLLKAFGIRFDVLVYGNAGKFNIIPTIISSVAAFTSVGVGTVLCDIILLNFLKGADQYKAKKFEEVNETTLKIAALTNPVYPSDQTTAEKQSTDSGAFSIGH
Method: as §1, §2

Structure (SMILES)	IC50 [1] [nM]	Ki [2] [nM]
CCc1nccn1-c1cc(C(=O)NCc2cnc(C)cn2)cc(-c2ccc(C)cn2)c1 [Compound 29, 3-(2-Ethyl-imidazol-1-yl)-N-(5-methyl-pyrazrn-2-ylmethyl)-5-(5-methyl-pyridin-2-yl)-benzamide]	~2.82	–
Cc1ccc(-c2cc(C(=O)NC(C)c3cnccn3)cc(-n3ccnc3C(C)C)c2)cc1 (centres unmarked) [Compound 27, 5-(2-Isopropyl-imidazol-1-yl)-4′-methyl-biphenyl-3-carboxylic acid (1-pyrazin-2-yl-ethyl)-amide]	–	~46.8
